Results on 4 compounds are retold here after patent US20100197914A1, “Purine Derivatives as Adenosine Al Receptor Ligands” (priority 2007, published 2010).

The assay addresses T1, adenosine A1 receptor (Homo sapiens, UniProt P30542).
T1 sequence (P30542 1-326): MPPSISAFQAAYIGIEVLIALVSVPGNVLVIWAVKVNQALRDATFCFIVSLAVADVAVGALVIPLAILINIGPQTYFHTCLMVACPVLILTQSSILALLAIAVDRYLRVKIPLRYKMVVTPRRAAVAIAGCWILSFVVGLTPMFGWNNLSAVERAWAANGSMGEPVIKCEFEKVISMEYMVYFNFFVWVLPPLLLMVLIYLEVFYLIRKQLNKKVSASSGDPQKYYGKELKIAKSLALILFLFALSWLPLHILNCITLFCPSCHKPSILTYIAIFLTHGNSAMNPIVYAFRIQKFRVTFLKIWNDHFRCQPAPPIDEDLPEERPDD
Put plainly: In vitro functional activity based on the stimulation of [35S]-GTPγS binding (SPA, agonist format). It is filed as biochemical. The following applies: mean of >2 measurements; A1 membranes, [35S]-GTPγS SPA assay; read-out: Mean pEC50 (converted). From the text:
In Vitro Functional Activity at the Human a Receptor Based on the Stimulation of [^35S]-GTPγS Binding
In brief the assay is based on the conventional GTPγS binding assay described by ([Lorenzen A, Guerra L, Vogt H, et al, (1996)] Interaction of full and partial agonists of the A1 adenosine receptor with receptor/G protein complexes in rat brain membranes. Mol Pharmacol. 49(5):915-26) The assay is run as a SPA assay where the A1 membranes are captured by wheatgerm agglutinin (WGA) SPA beads, through a specific interaction between WGA and carbohydrate residues of glycoprotein's on the surfaces for the membranes. Upon receptor stimulation, [^35S]-GTPγS binds specifically to the alpha subunit of the G-protein thus bringing the [^35S]-GTPγS into close proximity with the SPA beads. Emitted β particles from the [^35S]-GTPγS excite the scintillant in the beads and produce light. […] The assays were performed in a final volume of 250 μL per well in a white non-binding surface 96-well Optiplates and could be run in either an agonist format, or an antagonist format (pre-incubation with an EC50 concentration of the appropriate receptor agonist).
`CCC(=O)N[C@H]1C[C@@H](n2cnc3c(NC4CCCC4)ncnc32)[C@H](O)[C@@H]1O` [Example 1, N-[(1S,2R,3S,4R)-4-(6-Cyclopentylamino-purin-9-yl)-2,3-dihydroxy-cyclopentyl]-propionamide]: the EC50 was 47.9 nM. For `CCC(=O)N[C@H]1C[C@@H](n2cnc3c(NC4CCCC4)nc(Cl)nc32)[C@H](O)[C@@H]1O` [Example 2, N-[(1S,2R,3S,4R)-4-(2-Chloro-6-cyclopentylamino-purin-9-yl)-2,3-dihydroxy-cyclopentyl]-propionamide], the EC50 was 67.7 nM. To `O=C(CO)N[C@H]1C[C@@H](n2cnc3c(NC4CCCC4)ncnc32)[C@H](O)[C@@H]1O` [Example 3, N-[(1S,2R,3S,4R)-4-(6-Cyclopentylamino-purin-9-yl)-2,3-dihydroxy-cyclopentyl]-2-hydroxy-acetamide] belongs 97.9 nM.

For the compound `O=C(CO)N[C@H]1C[C@@H](n2cnc3c(NC4CCCC4)nc(Cl)nc32)[C@H](O)[C@@H]1O` [Example 4, N-[(1S,2R,3S,4R)-4-(2-Chloro-6-cyclopentylamino-purin-9-yl)-2,3-dihydroxy-cyclopentyl]-2-hydroxy-acetamide], the EC50 was 40.1 nM.
